Among the data in patent US8709999B2, “Substituted bicyclic HCV inhibitors” (Presidio Pharmaceuticals, Inc., priority 2009, dated 2014) are EC50 values, retold here.

The test system of the assay is HCV 1b_Huh-Luc/Neo-ET cell line (bicistronic genotype 1b replicon in Huh 7 cells). Nature of the assay: HCV replicon assay (luciferase readout). The assay is classed as cell-based, HCV genotype 1b. The following applies: Hepatitis C virus, Huh-7, 72 h, read-out: Inhibition of HCB genotype 1b. The procedure:
Biological activity of the compounds of the invention was determined using an HCV replicon assay. The HCV 1b_Huh-Luc/Neo-ET cell line persistently expressing a bicistronic genotype 1b replicon in Huh 7 cells was obtained from ReBLikon GMBH. This cell line was used to test compound inhibition using luciferase enzyme activity readout as a measurement of compound inhibition of replicon levels.
On Day 1 (the day after plating cells), each compound is added in triplicate to the cells. Plates are incubated for 72 h prior to determining luciferase levels. Enzyme activity was measured using a Bright-Glo Kit (cat. number E2620) manufactured by Promega Corporation. The following equation was used to generate a percent control value for each compound. % Control=(Compound Luciferase Level/Control Luciferase Level)*100
The EC50 value was determined using GraphPad Prism and the following equation: Y=Bottom asymptote+(Top asymptote−Bottom asymptote)/(1+10^((LogEC50−X)*HillSlope))
EC50 values of compounds are determined several times in the replicon assay to generate average EC50 values.
Consider `CC[C@H](C)[C@H](NC(=O)OC)C(=O)N1CCC[C@H]1c1ncc(-c2ccc(-c3ccc(-c4cnc([C@@H]5CCCN5C(=O)[C@@H](NC(=O)OC)C(C)C)[nH]4)cc3)c(OCCOC)c2OCCOC)[nH]1` [Compound 19], for which the EC50 is under 1 nM. The figure for `COCCOc1cc(-c2cnc([C@@H]3CCCN3C(=O)[C@@H](NC(=O)OC)C(C)C)[nH]2)ccc1-c1ccc(-c2cnc([C@@H]3CCCN3C(=O)[C@@H](NC(=O)OC)C(C)C)[nH]2)cc1OCCOC` [Compound 1] is under 1 nM. For `COCCOc1c(-c2ccc(-c3cnc([C@@H]4CCCN4C(=O)[C@@H](c4ccccc4)N4CCCC4)[nH]3)cc2)ccc(-c2cnc([C@@H]3CCCN3C(=O)[C@@H](c3ccccc3)N3CCCC3)[nH]2)c1OCCOC` [Compound 16] the value was 1 to 9.9 nM. Turning to `COCCOc1cc(-c2cnc([C@@H]3CCCN3C(=O)[C@@H](NC(=O)OC)C3CCCCC3)[nH]2)ccc1-c1ccc(-c2cnc([C@@H]3CCCN3C(=O)[C@@H](NC(=O)OC)C3CCCCC3)[nH]2)cc1OCCOC` [Compound 9], the EC50 is under 1 nM. In the case of `COCCOc1c(-c2ccc(-c3cnc([C@@H]4CCCN4C(=O)[C@@H](NC(=O)OC)C(C)C)[nH]3)cc2)ccc(-c2cnc([C@@H]3CCCN3C(=O)[C@H](C)NC(=O)OC)[nH]2)c1OCCOC` [Compound 18], the EC50 was in the range of 1 to 9.9 nM. On to `COCCOc1c(-c2ccc(-c3cnc([C@@H]4CCCN4C(=O)[C@@H](NC(=O)OC)C4CCCC4)[nH]3)cc2)ccc(-c2cnc([C@@H]3CCCN3C(=O)[C@@H](NC(=O)OC)C3CCCC3)[nH]2)c1OCCOC` [Compound 4], for which the EC50 is under 1 nM. For `COCCOc1c(-c2ccc(-c3cnc([C@@H]4CCCN4C(=O)[C@@H](NC(=O)OC)C4CCOCC4)[nH]3)cc2)ccc(-c2cnc([C@@H]3CCCN3C(=O)[C@@H](NC(=O)OC)C3CCOCC3)[nH]2)c1OCCOC` [Compound 14] the value was 1 to 9.9 nM; for `COCCOc1c(-c2ccc(-c3cnc([C@@H]4CCCN4C(=O)[C@@H](c4ccccc4)N(C)C)[nH]3)cc2)ccc(-c2cnc([C@@H]3CCCN3C(=O)[C@@H](c3ccccc3)N(C)C)[nH]2)c1OCCOC` [Compound 15], under 1 nM. `COCCOc1c(-c2ccc(-c3cnc([C@@H]4CCCN4C(=O)[C@H](COC)NC(=O)OC)[nH]3)cc2)ccc(-c2cnc([C@@H]3CCCN3C(=O)[C@H](COC)NC(=O)OC)[nH]2)c1OCCOC` [Compound 11]: the EC50 lay within 10 to 999 nM. With `COCCOc1c(-c2ccc(-c3cnc([C@@H]4CCCN4C(=O)[C@@H](NC(=O)OC)C(C)C)[nH]3)cc2)ccc(-c2cnc([C@@H]3CCCN3C(=O)[C@@H](NC(=O)OC)C(C)C)[nH]2)c1OCCOC` [Compound 2], the EC50 was under 1 nM.

On to `COCCOc1c(-c2ccc(-c3cnc([C@@H]4CCCN4C(=O)[C@@H](NC(=O)OC)C(C)(C)C)[nH]3)cc2)ccc(-c2cnc([C@@H]3CCCN3C(=O)[C@@H](NC(=O)OC)C(C)(C)C)[nH]2)c1OCCOC` [Compound 13], for which the EC50 was in the range of 1 to 9.9 nM. For `COCCOc1c(-c2ccc(-c3cnc([C@@H]4CCCN4C(=O)[C@@H](NC(=O)OC)[C@@H](C)OC)[nH]3)cc2)ccc(-c2cnc([C@@H]3CCCN3C(=O)[C@@H](NC(=O)OC)[C@@H](C)OC)[nH]2)c1OCCOC` [Compound 12] the value was 1 to 9.9 nM; for `COCCOc1c(-c2ccc(-c3cnc([C@@H]4CCCN4C(=O)[C@H](NS(C)(=O)=O)c4ccccc4)[nH]3)cc2)ccc(-c2cnc([C@@H]3CCCN3C(=O)[C@H](NS(C)(=O)=O)c3ccccc3)[nH]2)c1OCCOC` [Compound 17], under 1 nM. For `CC[C@H](C)[C@H](NC(=O)OC)C(=O)N1CCC[C@H]1c1ncc(-c2ccc(-c3ccc(-c4cnc([C@@H]5CCCN5C(=O)[C@@H](NC(=O)OC)[C@@H](C)CC)[nH]4)cc3OCCOC)c(OCCOC)c2)[nH]1` [Compound 7] the value was under 1 nM; for `COCCOc1cc(-c2cnc([C@@H]3CCCN3C(=O)[C@H](C)NC(=O)OC)[nH]2)ccc1-c1ccc(-c2cnc([C@@H]3CCCN3C(=O)[C@H](C)NC(=O)OC)[nH]2)cc1OCCOC` [Compound 6], 10 to 999 nM; for `CC[C@H](C)[C@H](NC(=O)OC)C(=O)N1CCC[C@H]1c1ncc(-c2ccc(-c3ccc(-c4cnc([C@@H]5CCCN5C(=O)[C@@H](NC(=O)OC)[C@@H](C)CC)[nH]4)c(OCCOC)c3OCCOC)cc2)[nH]1` [Compound 3], under 1 nM. On to `COCCOc1cc(-c2cnc([C@@H]3CCCN3C(=O)[C@@H](NC(=O)OC)C3CCCC3)[nH]2)ccc1-c1ccc(-c2cnc([C@@H]3CCCN3C(=O)[C@@H](NC(=O)OC)C3CCCC3)[nH]2)cc1OCCOC` [Compound 8], for which the EC50 was under 1 nM. For `COCCOc1c(-c2ccc(-c3cnc([C@@H]4CCCN4C(=O)[C@H](C)NC(=O)OC)[nH]3)cc2)ccc(-c2cnc([C@@H]3CCCN3C(=O)[C@H](C)NC(=O)OC)[nH]2)c1OCCOC` [Compound 10] the value was under 1 nM.
